Source: patent EP3959200B1, “NEW TRIAZOLE AND TRIAZOLOTHIADIAZINE DERIVATIVES EXERTING CYTOTOXIC AND APOPTOTIC EFFECTS ON A549 CELLS THROUGH AKT INHIBITION” (Anadolu Universitesi, priority 2020, dated 2022)
In brackets after ≈: the same amount, converted by molar mass.

Legend:
[1] = test system: A549 human lung adenocarcinoma cells; experiment: MTT cytotoxicity assay; type: cell-based; details: for IC50: Homo sapiens, A549, MTT, 24 hours, read-out: IC50 values A549 cell line; for SI values: SI= IC50 for NIH/3T3 cell line / IC50 for A549 cell line; for cytotoxic effects on A549 cell line: in the tested concentration range (0.12-500 µg/mL), result in words
Experimental: (§1) In order to be used from this stock, the concentrations ranging from 0.12 to 500 µg/mL (with the highest DMSO ratio of 0.1%) were prepared.
A549 human lung adenocarcinoma cells (ATCC® CCL-185™) were grown in RPMI 1640 medium supplemented with 10% fetal bovine serum, 1% penicillin/streptomycin, in an incubator with carbon dioxide, in a culture medium at 37°C at 95% relative humidity.
(§2) MTT protocol was applied to determine cell viability. […] At the end of the incubation period, 20 µL of MTT dye (5 mg/mL) was added into each well, and the cells were incubated for an additional 4 hours at 37°C. After this process, MTT dye was removed from the cells, 200 µL of DMSO was added to each well and left to incubate for 10 minutes. Color change was detected at 540 nm in the ELx808-IU Bio-Tek plate reader. Inhibition% values were determined for each concentration of compounds. Inhibitory concentration 50 (IC50) values of the compounds were calculated by drawing a dose-response curve with their concentrations against these values. All experiments were carried out in triplicate. The results were given as mean±standard deviation. Inhibition% = 100−[(ODtest compound−ODblank/ODsolvent control−ODblank)×100] [formula]
Selective index (SI) values were determined using the following formula. SI […] IC50 for NIH/3T3 cell line/IC50 for A549 cell line [formula]

[2] = test system: NIH/3T3 mouse embryonic fibroblast cells; experiment: MTT cytotoxicity assay; type: cell-based; details: for IC50: Mus musculus, NIH3T3, 24 hours, read-out: IC50 values NIH/3T3 cell line
Experimental: as §1
NIH/3T3 mouse embryonic fibroblast cells (ATCC® CRL-1658™) were grown in DMEM medium supplemented with 10% fetal bovine serum, 1% penicillin/streptomycin, in an incubator with carbon dioxide, in a culture medium at 37°C at 95% relative humidity.
as §2

[3] = test system: A549 cells; experiment: FITC Annexin V/PI apoptosis detection by flow cytometry; type: cell-based, human; details: for apoptosis induction: flow cytometry, result in words
Experimental: The cells incubated with the compounds were centrifuged at 400 × g for 5 minutes in labeled tubes and washed twice with 1xPBS. Then, the cells were suspended in 1×Annexin-V binding solution at 1×10^6 cells/mL and 100 µL of this cell solution was taken and transferred to tubes. The cells were treated with 5 µL Annexin V FITC and 5 µL of propidium iodide (PI) dyes. Then, the cells were kept at room temperature in the dark for 15 minutes to allow the dye to bind. 400 µL of 1×Annexin-V binding cell solution was transferred to flow cytometry tubes and the amount of early and late apoptotic cells was determined relative to the positive control using the BD FACSAria flow cytometer FACSDiva version 6.1.1 software.

[4] = test system: Akt; experiment: Akt activity assay (Akt colorimetric in cell ELISA); type: cell-based, human; details: for Inhibition % / IC50 value (Akt inhibitory effects): 24 hours; for Akt inhibitory effects: result in words
Experimental: Briefly, the media was removed from the wells and 100 µL of 4% formaldehyde was added. The plate was incubated for 15 minutes in a fume hood. Formaldehyde was removed and the plate was washed twice with 1X […] solution (TBS) to 100 µL/well. 1X TBS was removed and 100 µL of 1X permeabilization buffer was added to each well and left at room temperature for 15 minutes. After removing the 1X permeabilization buffer, the wells were washed once with 100 µL of 1X TBS. 1X TBS was removed and 100 µL of the quenching solution was added to the wells and left at room temperature for 20 minutes. Then, this solution was removed. The plate was washed once with 1X TBS, 100 µL of blocking buffer was added to the wells and left at room temperature for 30 minutes. At the end of this period, the blocking buffer was removed and 50 µL of primary antibody was added to the wells. The plate was closed with a sealer and incubated overnight at 4°C. The primary antibody was removed and plate wells were washed three times with 100 µL of wash buffer. After removing the wash buffer, 100 µL of diluted horseradish peroxidase (HRP) conjugate was added to the wells. It was incubated for 30 minutes at room temperature. After removing this conjugate, 100 µL of 3,3',5,5'-tetramethylbenzidine (TMB) stop solution was added and absorbance was measured at 450 nm for 30 minutes. The experiment was carried out in triplicate. The values of the blank wells were subtracted from the values of the untreated control and treated cells. The Akt activity% was determined as the relative absorbance of treated versus untreated control cells.

Row | Structure (SMILES) | IC50 [1] [µg/mL] | SI values [1] | IC50 [2] [µg/mL] | Early apoptotic cells % ([3]; at IC50 concentrations) [%] | Late apoptotic cells % ([3]; at IC50 concentrations) [%] | Necrosis % ([3]; at IC50 concentrations) [%] | Viable cells% ([3]; at IC50 concentrations) [%] | other results
1 | c1ccc(C2=Nn3c(CCc4cccnc4)nnc3SC2)cc1 [Compound 2a, 6-Phenyl-3-(2-(pyridine-3-yl)ethyl)-7H-[1,2,4]triazolo[3,4-b][1,3,4]thiadiazine] | 7.23 ± 1.62 (≈ 22.5 µM) | >69.16 | > 500 | 1.7 | 2.7 | 0.7 | 95.0 | Inhibition % ([4]; 1.81 µg/mL): 8.75±2.77%; Inhibition % ([4]; 3.62 µg/mL): 7.69±2.91%; Inhibition % ([4]; 7.23 µg/mL): 35.45±5.82%; Akt inhibitory effects [4]: did not show significant Akt inhibitory effects
2 | O=[N+]([O-])c1ccc(C2=Nn3c(CCc4cccnc4)nnc3SC2)cc1 [Compound 2b, G-(4-Nitrophenyl)-3-(2-(pyridine-3-yl)ethyl)-7H-[1,2,4]triazolo[3,4-b] [1,3,4]thiadiazine] | 8.13 ± 0.81 (≈ 22.2 µM) | >61.50 | > 500 | 2.4 | 2.4 | 2.5 | 94.6 | Inhibition % ([4]; 4.07 µg/mL): 34.75±2.25%; Inhibition % ([4]; 8.13 µg/mL): 33.16±14.16%; Akt inhibitory effects [4]: did not show significant Akt inhibitory effects
3 | Fc1ccc(C2=Nn3c(CCc4cccnc4)nnc3SC2)cc1 [Compound 2c, 6-(4-fluorophenyl)-3-(2-(pyridine-3-yl)ethyl)-7H-[1,2,4]triazolo[3,4-b][1,3,4]thiadiazine] | 11.8 ± 2.25 (≈ 34.9 µM) | >42.27 | > 500 | 1.8 | 6.0 | 4.6 | 87.6 | apoptotic activity ([3]; at IC50 concentrations, early plus late apoptotic cells): 7.8%; apoptosis induction [3]: induce apoptosis; Inhibition % ([4]; 2.95 µg/mL): 54.17±26.41%; Inhibition % ([4]; 5.92 µg/mL): 73.98±8.55%; Inhibition % ([4]; 11.83 µg/mL): 82.60±2.88%; IC50 value (Akt inhibitory effects) [4]: 2.95 ± 0.05 µg/mL (≈ 8.69 µM)
4 | Clc1ccc(C2=Nn3c(CCc4cccnc4)nnc3SC2)cc1 [Compound 2d, 6-(4-chlorophenyl)-3-(2-(pyridine-3-yl)ethyl)-7H-[1,2,4]triazolo[3,4-b][1,3,4]thiadiazine] | 15.8 ± 0.35 (≈ 44.3 µM) | >31.75 | > 500 | 2.4 | 3.8 | 1.3 | 92.5 | apoptosis induction [3]: induce apoptosis; Inhibition % ([4]; 3.94 µg/mL): 80.33±19.71%; Inhibition % ([4]; 7.88 µg/mL): 99.07±1.86%; Inhibition % ([4]; 15.75 µg/mL): 90.41±7.17%; IC50 value (Akt inhibitory effects) [4]: 0.80 ± 0.10 µg/mL (≈ 2.25 µM)
5 | Brc1ccc(C2=Nn3c(CCc4cccnc4)nnc3SC2)cc1 [Compound 2e, G-(4-Bromophenyl)-3-(2-(pyridine-3-yl)ethyl)-7H-[1,2,4]triazolo[3,4-b][1,3,4]thiadiazine] | > 500 | – | > 500 | – | – | – | – | cytotoxic effects on A549 cell line [1]: did not show cytotoxic effects
6 | N#Cc1ccc(C2=Nn3c(CCc4cccnc4)nnc3SC2)cc1 [Compound 2f, G-(4-Cyanophenyl)-3-(2-(pyridine-3-yl)ethyl)-7H-[1,2,4]triazolo[3,4-b][1,3,4]thiadiazine] | > 500 | – | > 500 | – | – | – | – | cytotoxic effects on A549 cell line [1]: did not show cytotoxic effects
7 | FC(F)(F)c1ccc(C2=Nn3c(CCc4cccnc4)nnc3SC2)cc1 [Compound 2g, 3-(2-(Pyridine-3-yl)ethyl)-6-(4-(trifluoromethyl)phenyl)-7H-[1,2,4]triazolo[3,4-b][1,3,4]thiadiazine] | > 500 | – | > 500 | – | – | – | – | cytotoxic effects on A549 cell line [1]: did not show cytotoxic effects
8 | Cc1ccc(C2=Nn3c(CCc4cccnc4)nnc3SC2)cc1 [Compound 2h, 3-(2-(Pyridine-3-yl)ethyl)-6-(p-tolyl)-7H-[1,2,4]triazolo[3,4-b][1,3,4]thiadiazine] | 41.3 ± 0.58 (≈ 123 µM) | >12.10 | > 500 | – | – | – | – | –
9 | COc1ccc(C2=Nn3c(CCc4cccnc4)nnc3SC2)cc1 [Compound 2i, G-(4-Methoxyphenyl)-3-(2-(pyridine-3-yl)ethyl)-7H-[1,2,4]triazolo[3,4-b][1,3,4] thiadiazine] | 13.7 ± 2.52 (≈ 38.9 µM) | – | < 3.9 | – | – | – | – | IC50 values NIH/3T3 cell line ([2]; 24 hours): <3.90 µg/mL
10 | c1cncc(CCc2nnc3n2N=C(c2ccc4ccccc4c2)CS3)c1 [Compound 2j, 6-(Naphthalene-2-yl)-3-(2-(pyridine-3-yl)ethyl)-7H-[1,2,4]triazolo[3,4-b][1,3,4] thiadiazine] | 4 (≈ 10.8 µM) | 1.67 | 6.66 ± 1.04 (≈ 17.9 µM) | 1.0 | 3.6 | 5.0 | 90.3 | Inhibition % ([4]; 2.0 µg/mL): 17.80±2.08%; Inhibition % ([4]; 4.0 µg/mL): 48.23±7.29%; Akt inhibitory effects [4]: did not show significant Akt inhibitory effects
11 | Nn1c(CCc2cccnc2)nnc1SCC(=O)Nc1nccs1 [Compound 3a, 2-((4-Amino-5-(2-(pyridine-3-yl)ethyl)-4H-1,2,4-triazole-3-yl)thio)-N-(thiazole-2-yl)acetamide] | 0.48 ± 0.04 (≈ 1.33 µM) | 430.54 | 207 ± 11.6 (≈ 572 µM) | 0.4 | 3.1 | 5.6 | 91.0 | Inhibition % ([4]; 0.48 µg/mL): 54.76±5.33%; Akt inhibitory effects [4]: did not show significant Akt inhibitory effects
12 | Nn1c(CCc2cccnc2)nnc1SCC(=O)Nc1nc2ccccc2s1 [Compound 3b, 2-((4-Amino-5-(2-(pyridine-3-yl)ethyl)-4H-1,2,4-triazole-3-yl)thio)-N-(benzothiazole-2-yl)acetamide] | 0.68 ± 0.18 (≈ 1.65 µM) | 34.31 | 23.3 ± 6.11 (≈ 56.7 µM) | 0.7 | 3.0 | 3.2 | 93.1 | Inhibition % ([4]; 0.98 µg/mL): 14.58±4.29%; Inhibition % ([4]; 3.90 µg/mL): 72.89±5.45%; IC50 value (Akt inhibitory effects) [4]: 2.23 ± 0.12 µg/mL (≈ 5.42 µM)
13 | Nn1c(CCc2cccnc2)nnc1SCC(=O)Nc1nc2ccc(Br)cc2s1 [Compound 3e, 2-((4-Amino-5-(2-(pyridine-3-yl)ethyl)-4H-1,2,4-triazole-3-yl)thio)-N-(6-bromobenzothiazole-2-yl)acetamide] | 362 ± 12.6 (≈ 737 µM) | >1.38 | > 500 | – | – | – | – | –
14 | CCn1c(-c2nonc2N)nc2c(C#CC(C)(C)O)ncc(OC[C@H]3CCCNC3)c21 [GSK690693, reference compound] | 6.15 ± 0.49 (≈ 14.5 µM) | – | – | – | – | – | – | Inhibition % ([4]; 1.50 µg/mL): 34.46±1.47%; Inhibition % ([4]; 3.075 µg/mL): 49.88±5.55%; Inhibition % ([4]; 6.15 µg/mL): 100%; IC50 value (Akt inhibitory effects) [4]: 2.93 ± 0.23 µg/mL (≈ 6.89 µM)
